Experimental data: patent US20050143328A1, “COMPOSITION AND TREATMENT FOR ENVELOPE VIRUS INFECTIONS” (priority 2003, published 2005)

System: herpes simplex I
Test: Topical treatment of herpes simplex I / cold sores with a neomycin B composition
Type: in vivo
Settings: between 3.5 and 5 mg/g neomycin B combined with pramoxine hydrochloride in petroleum jelly
From the text: Example 2: This embodiment of the invention is a compound similar to that disclosed in Example 1, except that it is specifically targeted to the treatment of herpes simplex I and the prevention of physiological manifestations of herpes simplex I (e.g., cold sores). […] However, for longer-term use or storage, preservatives like methylparaben are utilized to avoid contamination, and the ingredients preferably comprise an emulsion or suspension to distribute evenly the physiologically active ingredients.

NC[C@@H]1O[C@H](O[C@H]2[C@@H](O)[C@H](O[C@@H]3[C@@H](O)[C@H](N)C[C@H](N)[C@H]3O[C@H]3O[C@H](CN)[C@@H](O)[C@H](O)[C@H]3N)O[C@@H]2CO)[C@H](N)[C@@H](O)[C@@H]1O [neomycin B]
outcome of the experiment (treatment of herpes simplex I and prevention of its manifestations, e.g. cold sores): ultimately effective
